Where “and” joins values, the source holds several entries; their conditions need not be identical. Equal entries are not always repeated.
Tests used:
normal rats = experiment: Effect on blood pressure of normal rats by single oral administration; type: in vivo, Wistar rats; settings: for inhibition in vivo at 0.5 mg/kg / inhibition in vivo at 1 mg/kg / inhibition in vivo at 2 mg/kg / change in vivo at 0.5 mg/kg / change in vivo at 1 mg/kg / change in vivo at 2 mg/kg: Rattus norvegicus, po, single, normal rats; for inhibition in vivo at 0.5 mg/kg / inhibition in vivo at 1 mg/kg / inhibition in vivo at 2 mg/kg: 8 h, read-out: blood pressure reduction at 8 h after the administration; for inhibition in vivo at 0.5 mg/kg / change in vivo at 0.5 mg/kg: 0.5 mg/kg p.o.; for inhibition in vivo at 1 mg/kg / change in vivo at 1 mg/kg: 1.0 mg/kg p.o.; for inhibition in vivo at 2 mg/kg / change in vivo at 2 mg/kg: 2.0 mg/kg p.o.; for change in vivo at 0.5 mg/kg / change in vivo at 1 mg/kg / change in vivo at 2 mg/kg: read-out: variations on heart rate
[1] = system: renovascular hypertensive rats; experiment: Effect on reducing blood pressure of renovascular hypertensive rats by single oral administration; type: in vivo, Wistar rats; settings: for change in vivo at 0.5 mg/kg / inhibition in vivo at 0.5 mg/kg / change in vivo at 1 mg/kg / inhibition in vivo at 1 mg/kg / change in vivo at 2 mg/kg / inhibition in vivo at 2 mg/kg: Rattus norvegicus, single oral administration; for change in vivo at 0.5 mg/kg / change in vivo at 1 mg/kg / change in vivo at 2 mg/kg: RHR, read-out: Variations on heart rate; for inhibition in vivo at 0.5 mg/kg / inhibition in vivo at 1 mg/kg / inhibition in vivo at 2 mg/kg: two-kidney one-clip RHR, measured 1-10 h, read-out: Maximum blood pressure reduction; for blood pressure reduction effect compared with Azilsartan medoxomil: renal artery-ligated rat, result in words

Compound: 1-(6-methypyridazine-2-methoxy-carbonyloxy)ethyl-2-ethoxy-1-{[2′-(5-oxo-4,5-dihydro-1,2,4-oxadiazole)-3-yl)biphenyl-4-yl]methyl}-1H-benzimidazole-7-carboxylate [QR01029]
- blood pressure reduction at 8 h after the administration (normal rats; rat, in vivo): 4.2 ± 3.2% and 5.8 ± 2.2% and 3.4 ± 4.8%
- Maximum blood pressure reduction ([1]; rat, in vivo): 12 ± 2.1% and 15 ± 4.3% and 24 ± 5.2%
- Variations on heart rate ([1]; rat, in vivo): −4 ± 3% and −5 ± 2% and −8 ± 2%

Compound: CCOc1nc2cccc(C(=O)OCOC(=O)OC(C)C)c2n1Cc1ccc(-c2ccccc2-c2noc(=O)[nH]2)cc1 [QR01002]
- inhibition in vivo at 0.5 mg/kg (normal rats): 5.6 ± 2.3%
- inhibition in vivo at 1 mg/kg (normal rats): 6.4 ± 2.1%
- inhibition in vivo at 2 mg/kg (normal rats): 6.4 ± 2.1%
- change in vivo at 0.5 mg/kg (normal rats): -4 ± 5%
- change in vivo at 1 mg/kg (normal rats): -5 ± 4%
- change in vivo at 2 mg/kg (normal rats): 5%
- change in vivo at 0.5 mg/kg [1]: -5 ± 4%
- inhibition in vivo at 0.5 mg/kg [1]: 12 ± 2.4%
- change in vivo at 1 mg/kg [1]: -8 ± 3%
- inhibition in vivo at 1 mg/kg [1]: 15 ± 1.8%
- change in vivo at 2 mg/kg [1]: -6 ± 4%
- inhibition in vivo at 2 mg/kg [1]: 19 ± 4.2%

Compound: CCOc1nc2cccc(C(=O)OCCOC(C)=O)c2n1Cc1ccc(-c2ccccc2-c2noc(=O)[nH]2)cc1 [QR01004]
- inhibition in vivo at 0.5 mg/kg (normal rats): 7.5 ± 1.4%
- inhibition in vivo at 1 mg/kg (normal rats): 6.7 ± 1.3%
- inhibition in vivo at 2 mg/kg (normal rats): 5.7 ± 2.6%
- change in vivo at 0.5 mg/kg (normal rats): -1 ± 2%
- change in vivo at 1 mg/kg (normal rats): -2 ± 1%
- change in vivo at 2 mg/kg (normal rats): 3%
- change in vivo at 0.5 mg/kg [1]: 0%
- inhibition in vivo at 0.5 mg/kg [1]: 7 ± 1.2%
- change in vivo at 1 mg/kg [1]: -5 ± 3%
- inhibition in vivo at 1 mg/kg [1]: 10 ± 2.3%
- change in vivo at 2 mg/kg [1]: -3 ± 1%
- inhibition in vivo at 2 mg/kg [1]: 12 ± 3.4%

Compound: CCOc1nc2cccc(C(=O)OCc3nc(C)c(C)nc3C)c2n1Cc1ccc(-c2ccccc2-c2noc(=O)[nH]2)cc1 [QR01006]
- inhibition in vivo at 0.5 mg/kg (normal rats): 6.3 ± 2.8%
- inhibition in vivo at 1 mg/kg (normal rats): 7.2 ± 1.9%
- inhibition in vivo at 2 mg/kg (normal rats): 4.2 ± 2.1%
- change in vivo at 0.5 mg/kg (normal rats): -3 ± 4%
- change in vivo at 1 mg/kg (normal rats): 2%
- change in vivo at 2 mg/kg (normal rats): -5 ± 6%
- change in vivo at 0.5 mg/kg [1]: -4 ± 2%
- inhibition in vivo at 0.5 mg/kg [1]: 14 ± 3.4%
- change in vivo at 1 mg/kg [1]: -5 ± 3%
- inhibition in vivo at 1 mg/kg [1]: 18 ± 3.6%
- change in vivo at 2 mg/kg [1]: -5 ± 3%
- inhibition in vivo at 2 mg/kg [1]: 24 ± 4.1%

Compound: CCOc1nc2cccc(C(=O)OC3COC4C(O[N+](=O)[O-])COC34)c2n1Cc1ccc(-c2ccccc2-c2noc(=O)[nH]2)cc1 (centres unmarked) [QR01007]
- inhibition in vivo at 0.5 mg/kg (normal rats): 3.5 ± 3.4%
- inhibition in vivo at 1 mg/kg (normal rats): 2.5 ± 4.6%
- inhibition in vivo at 2 mg/kg (normal rats): 3.7 ± 4.3%
- change in vivo at 0.5 mg/kg (normal rats): -3 ± 2%
- change in vivo at 1 mg/kg (normal rats): -7 ± 2%
- change in vivo at 2 mg/kg (normal rats): 5%
- change in vivo at 0.5 mg/kg [1]: -3 ± 1%
- inhibition in vivo at 0.5 mg/kg [1]: 10 ± 1.5%
- change in vivo at 1 mg/kg [1]: -8 ± 3%
- inhibition in vivo at 1 mg/kg [1]: 12 ± 2%
- change in vivo at 2 mg/kg [1]: -5 ± 2%
- inhibition in vivo at 2 mg/kg [1]: 18 ± 3.5%

Compound: CCOc1nc2cccc(C(=O)OCCCCO[N+](=O)[O-])c2n1Cc1ccc(-c2ccccc2-c2noc(=O)[nH]2)cc1 [QR01008]
- inhibition in vivo at 0.5 mg/kg (normal rats): 4.5 ± 2.7%
- inhibition in vivo at 1 mg/kg (normal rats): 4.6 ± 2.5%
- inhibition in vivo at 2 mg/kg (normal rats): 2.1 ± 2.4%
- change in vivo at 0.5 mg/kg (normal rats): -6 ± 2%
- change in vivo at 1 mg/kg (normal rats): 4%
- change in vivo at 2 mg/kg (normal rats): -2 ± 3%
- change in vivo at 0.5 mg/kg [1]: -8 ± 5%
- inhibition in vivo at 0.5 mg/kg [1]: 17 ± 3.1%
- change in vivo at 1 mg/kg [1]: -15 ± 3%
- inhibition in vivo at 1 mg/kg [1]: 28 ± 3.4%
- change in vivo at 2 mg/kg [1]: -18 ± 5%
- inhibition in vivo at 2 mg/kg [1]: 35 ± 3.4%
- blood pressure reduction effect compared with Azilsartan medoxomil [1]: close to that of Azilsartan medoxomil

Compound: CCOc1nc2cccc(C(=O)Oc3ccc(OCc4c(-c5ccccc5)no[n+]4[O-])cc3)c2n1Cc1ccc(-c2ccccc2-c2noc(=O)[nH]2)cc1 [QR01010]
- inhibition in vivo at 0.5 mg/kg (normal rats): 2.1 ± 3.2%
- inhibition in vivo at 1 mg/kg (normal rats): 4.6 ± 4.7%
- inhibition in vivo at 2 mg/kg (normal rats): 5.7 ± 2.3%
- change in vivo at 0.5 mg/kg (normal rats): 5%
- change in vivo at 1 mg/kg (normal rats): -5 ± 1%
- change in vivo at 2 mg/kg (normal rats): -4 ± 5%
- change in vivo at 0.5 mg/kg [1]: 5%
- inhibition in vivo at 0.5 mg/kg [1]: 21 ± 4.7%
- change in vivo at 1 mg/kg [1]: -3 ± 1%
- inhibition in vivo at 1 mg/kg [1]: 26 ± 5.4%
- change in vivo at 2 mg/kg [1]: -5 ± 3%
- inhibition in vivo at 2 mg/kg [1]: 30 ± 3.6%

Compound: CCOc1nc2cccc(C(=O)OCCCCOc3no[n+]([O-])c3S(=O)(=O)c3ccccc3)c2n1Cc1ccc(-c2ccccc2-c2noc(=O)[nH]2)cc1 [QR01011]
- inhibition in vivo at 0.5 mg/kg (normal rats): 2.7 ± 3.6%
- inhibition in vivo at 1 mg/kg (normal rats): 3.8 ± 2.1%
- inhibition in vivo at 2 mg/kg (normal rats): 3.7 ± 5%
- change in vivo at 0.5 mg/kg (normal rats): -3 ± 5%
- change in vivo at 1 mg/kg (normal rats): 6%
- change in vivo at 2 mg/kg (normal rats): -5 ± 3%
- change in vivo at 0.5 mg/kg [1]: -5 ± 3%
- inhibition in vivo at 0.5 mg/kg [1]: 16 ± 4.3%
- change in vivo at 1 mg/kg [1]: -8 ± 6%
- inhibition in vivo at 1 mg/kg [1]: 28 ± 1.3%
- change in vivo at 2 mg/kg [1]: -6 ± 4%
- inhibition in vivo at 2 mg/kg [1]: 29 ± 4%
- blood pressure reduction effect compared with Azilsartan medoxomil [1]: close to that of Azilsartan medoxomil

Compound: CCOc1nc2cccc(C(=O)ONC(=N)Nc3ccccc3)c2n1Cc1ccc(-c2ccccc2-c2noc(=O)[nH]2)cc1 [QR01012]
- inhibition in vivo at 0.5 mg/kg (normal rats): 1.9 ± 3.2%
- inhibition in vivo at 1 mg/kg (normal rats): 3.9 ± 2.1%
- inhibition in vivo at 2 mg/kg (normal rats): 4.6 ± 2.4%
- change in vivo at 0.5 mg/kg (normal rats): 1%
- change in vivo at 1 mg/kg (normal rats): -3 ± 2%
- change in vivo at 2 mg/kg (normal rats): -3 ± 4%
- change in vivo at 0.5 mg/kg [1]: 2%
- inhibition in vivo at 0.5 mg/kg [1]: 17 ± 3.7%
- change in vivo at 1 mg/kg [1]: -3 ± 4%
- inhibition in vivo at 1 mg/kg [1]: 22 ± 1%
- change in vivo at 2 mg/kg [1]: -5 ± 2%
- inhibition in vivo at 2 mg/kg [1]: 27 ± 2.8%

Compound: CCOc1nc2cccc(C(=O)OCc3oc(=O)c(=O)oc3C)c2n1Cc1ccc(-c2ccccc2-c2noc(=O)[nH]2)cc1 [QR01014]
- inhibition in vivo at 0.5 mg/kg (normal rats): 2.9 ± 3.4%
- inhibition in vivo at 1 mg/kg (normal rats): 2.7 ± 3.6%
- inhibition in vivo at 2 mg/kg (normal rats): 4.6 ± 3.2%
- change in vivo at 0.5 mg/kg (normal rats): -4 ± 2%
- change in vivo at 1 mg/kg (normal rats): -3 ± 3%
- change in vivo at 2 mg/kg (normal rats): 4%
- change in vivo at 0.5 mg/kg [1]: -2 ± 3%
- inhibition in vivo at 0.5 mg/kg [1]: 16 ± 3.5%
- change in vivo at 1 mg/kg [1]: -4 ± 2%
- inhibition in vivo at 1 mg/kg [1]: 21 ± 4.3%
- change in vivo at 2 mg/kg [1]: -4 ± 5%
- inhibition in vivo at 2 mg/kg [1]: 26 ± 2.1%

Compound: CCOC(=O)C(=O)OC(C)C(=O)COC(=O)c1cccc2nc(OCC)n(Cc3ccc(-c4ccccc4-c4noc(=O)[nH]4)cc3)c12 (centres unmarked) [QR01015]
- inhibition in vivo at 0.5 mg/kg (normal rats): 3.7 ± 2.6%
- inhibition in vivo at 1 mg/kg (normal rats): 2.3 ± 1.8%
- inhibition in vivo at 2 mg/kg (normal rats): 1.8 ± 2.4%
- change in vivo at 0.5 mg/kg (normal rats): 3%
- change in vivo at 1 mg/kg (normal rats): 1%
- change in vivo at 2 mg/kg (normal rats): -3 ± 3%
- change in vivo at 0.5 mg/kg [1]: 4%
- inhibition in vivo at 0.5 mg/kg [1]: 10 ± 1.5%
- change in vivo at 1 mg/kg [1]: 2%
- inhibition in vivo at 1 mg/kg [1]: 12 ± 2%
- change in vivo at 2 mg/kg [1]: 3%
- inhibition in vivo at 2 mg/kg [1]: 18 ± 3.5%

Compound: CCOc1nc2cccc(C(=O)OCCO[N+](=O)[O-])c2n1Cc1ccc(-c2ccccc2-c2noc(=O)[nH]2)cc1 [QR01016]
- inhibition in vivo at 0.5 mg/kg (normal rats): 3.6 ± 2.8%
- inhibition in vivo at 1 mg/kg (normal rats): 4.2 ± 5.7%
- inhibition in vivo at 2 mg/kg (normal rats): 5.9 ± 3.2%
- change in vivo at 0.5 mg/kg (normal rats): 1%
- change in vivo at 1 mg/kg (normal rats): 5%
- change in vivo at 2 mg/kg (normal rats): 3%
- change in vivo at 0.5 mg/kg [1]: 1%
- inhibition in vivo at 0.5 mg/kg [1]: 11 ± 3.1%
- change in vivo at 1 mg/kg [1]: 5%
- inhibition in vivo at 1 mg/kg [1]: 12 ± 9.2%
- change in vivo at 2 mg/kg [1]: 4%
- inhibition in vivo at 2 mg/kg [1]: 15 ± 6.5%

Compound: CCOc1nc2cccc(C(=O)OCc3c(C)no[n+]3[O-])c2n1Cc1ccc(-c2ccccc2-c2noc(=O)[nH]2)cc1 [QR01025]
- inhibition in vivo at 0.5 mg/kg (normal rats): 3.3 ± 3.2%
- inhibition in vivo at 1 mg/kg (normal rats): 6.2 ± 3.8%
- inhibition in vivo at 2 mg/kg (normal rats): 3.7 ± 4.1%
- change in vivo at 0.5 mg/kg (normal rats): -2 ± 3%
- change in vivo at 1 mg/kg (normal rats): 6%
- change in vivo at 2 mg/kg (normal rats): -3 ± 4%
- change in vivo at 0.5 mg/kg [1]: 4 ± 6%
- inhibition in vivo at 0.5 mg/kg [1]: 18 ± 3.4%
- change in vivo at 1 mg/kg [1]: -7 ± 5%
- inhibition in vivo at 1 mg/kg [1]: 22 ± 4.5%
- change in vivo at 2 mg/kg [1]: -7 ± 3%
- inhibition in vivo at 2 mg/kg [1]: 28 ± 3.2%
